Test results from publication PMC8348686, “The Pharmacological Profile of Second Generation Pyrovalerone Cathinones and Related Cathinone Derivative” (International Journal of Molecular Sciences, 2021).

Key:
h5-HT1A receptor = target: T1, h5-HT1A receptor (Homo sapiens, UniProt P08908); assay: Radioligand binding, [3H]-8-OH-DPAT
T1 construct: expressed in transfected cells; host or cells: HEK293 cell preparations
T1 sequence (P08908 1-422): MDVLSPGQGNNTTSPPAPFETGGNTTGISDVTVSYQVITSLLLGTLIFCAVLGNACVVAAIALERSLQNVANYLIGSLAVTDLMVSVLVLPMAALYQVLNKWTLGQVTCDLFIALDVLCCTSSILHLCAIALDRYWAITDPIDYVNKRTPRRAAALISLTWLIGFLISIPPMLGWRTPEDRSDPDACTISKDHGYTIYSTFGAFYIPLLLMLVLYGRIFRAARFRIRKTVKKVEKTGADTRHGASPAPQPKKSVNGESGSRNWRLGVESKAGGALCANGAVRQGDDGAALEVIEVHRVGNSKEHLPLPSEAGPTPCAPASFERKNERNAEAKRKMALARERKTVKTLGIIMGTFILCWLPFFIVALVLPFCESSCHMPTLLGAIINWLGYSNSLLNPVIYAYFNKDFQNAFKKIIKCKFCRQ
Procedure: (§1) The radioligand binding assays for the human 5-HT1A, 5-HT2A, and 5-HT2C receptors were examined as previously described by. In summary, the human embryonic kidney 293 (HEK293) cell preparations were stably transfected with the human 5-HT1A, 5-HT2A or 5-HT2C receptors and then incubated with their respective radiolabelled ligands at a concentration equal to the dissociation constant, Kd. The following radioligands were used for the 5-HT1A, 5-HT2A, and 5-HT2C receptors, respectively; 0.90 nM [^3H]8-hydroxy-2-(dipropylamino) tetralin (8-OH-DPAT), 0.40 nM [^3H]ketanserin, and 1.4 nM [^3H]mesulgerine. The radioligand displacement for each examined drug was determined. Specific binding of the radioligand to the target was calculated by subtracting the nonspecific binding (in the presence of the receptor’s competitor in excess) from the total observed binding. The following radioligand competitors were used for the 5-HT1A, 5-HT2A, and 5-HT2C receptors, respectively; 10 μM pindolol (5-HT1A receptor), 10 μM spiperone (5-HT2A receptor), and 10 μM mianserin (5-HT2C receptor).

h5-HT2B receptor = target: T2, h5-HT2B receptor (Homo sapiens, UniProt P41595); assay: Activation potency, FLIPR calcium assay in HEK293 cells; type: cell-based
T2 construct: expressed in transfected cells; host or cells: HEK293
Procedure: Human embryonic kidney 293 (HEK293) cells were transfected with the human 5-HT2B receptors, seed into 96-well plates coated with poly-D-lysine at a concentration of 50,000 cell per 0.1 mL and then incubated for overnight at 37 °C in high glucose Dulbecco’s modified Eagle’s medium (DMEM; Invitrogen, Zug, Switzerland) containing 10% fetal calf serum (non-dialyzed, heat-inactivated), 250 mg/L Geneticin, and 10 mL/L PenStrep (Gibco). The medium was then removed using snap inversion and the cells were incubated with the 100 μL/well of calcium indicator Fluo-3-solution for 45 min at 31 °C (Molecular Probes, Eugene, OR, USA). Thereafter, the solution was removed using snap inversion and replaced with fresh calcium indicator Fluo-3-solution for an additional 45 min at 31 °C. The cells were then washed with HBSS and 20 mM HEPES using the EMBLA cell washer and immediately after incubated with 100 μL of assay buffer. The plate was then put into the FLIPR, turned online and the test drugs, diluted in the assay buffer were added to the corresponding wells (25 μL/well). The corresponding concentration vs. response curves were fitted using nonlinear regression and the EC50 values were calculated. The efficacy (maximal activity) was calculated relative to 5-HT activity, which was defined as 100%.

h5-HT2C receptor = target: T3, h5-HT2C receptor (Homo sapiens, UniProt P28335); assay: Radioligand binding, [3H]-mesulgerine
T3 construct: expressed in transfected cells; host or cells: HEK293 cell preparations
T3 sequence (P28335 33-458): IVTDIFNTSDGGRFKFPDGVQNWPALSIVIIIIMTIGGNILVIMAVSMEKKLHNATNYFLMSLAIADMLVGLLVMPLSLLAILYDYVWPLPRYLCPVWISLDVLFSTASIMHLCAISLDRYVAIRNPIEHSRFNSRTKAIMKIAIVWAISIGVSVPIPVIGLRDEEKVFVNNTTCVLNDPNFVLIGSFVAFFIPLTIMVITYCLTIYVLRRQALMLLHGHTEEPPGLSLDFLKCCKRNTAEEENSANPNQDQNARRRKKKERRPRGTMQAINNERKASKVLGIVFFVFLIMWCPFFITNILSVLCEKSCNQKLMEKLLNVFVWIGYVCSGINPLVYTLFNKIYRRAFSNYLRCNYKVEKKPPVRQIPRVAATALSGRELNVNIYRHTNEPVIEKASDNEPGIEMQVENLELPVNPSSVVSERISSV
Procedure: as §1

h5-HT2A receptor [1] = target: T4, h5-HT2A receptor (Homo sapiens, UniProt P28223); assay: Activation potency, FLIPR calcium assay in NIH-3T3 cells; type: cell-based; set-up: expressed in transfected cells
Procedure: Mouse embryonic fibroblasts (NIH-3T3) were transfected with the human 5-HT2A receptors, seed into 96-well plates coated with poly-D-lysine at a concentration of 70,000 cell per 0.1 mL and then incubated for 1 h at 37 °C in HEPES-Hank’s Balanced Salt Solution (HBSS) buffer (Gibco). Next, the plates were exposed to 100 μL/well of dye solution for 1 h at 37 °C inside the FLIPR (fluorescence imagining plate reader [FLIPR] calcium 5 assay kit; Molecular Devices, Sunnyvale, CA, USA). Then, the plates were exposed to the 25 μL/well of test drugs dissolved in HEPES–HBSS buffer and 250 mM probencid during online mode. The corresponding concentration vs. response curves were fitted using nonlinear regression and the EC50 values were calculated. The efficacy (maximal activity) was calculated relative to 5-HT activity, which was defined as 100%.

h5-HT2A receptor [2] = target: T4, h5-HT2A receptor; assay: Radioligand binding, [3H]-ketanserin; set-up: expressed in transfected cells; host or cells: HEK293 cell preparations
Procedure: as §1

T4 sequence (P28223 whole entry): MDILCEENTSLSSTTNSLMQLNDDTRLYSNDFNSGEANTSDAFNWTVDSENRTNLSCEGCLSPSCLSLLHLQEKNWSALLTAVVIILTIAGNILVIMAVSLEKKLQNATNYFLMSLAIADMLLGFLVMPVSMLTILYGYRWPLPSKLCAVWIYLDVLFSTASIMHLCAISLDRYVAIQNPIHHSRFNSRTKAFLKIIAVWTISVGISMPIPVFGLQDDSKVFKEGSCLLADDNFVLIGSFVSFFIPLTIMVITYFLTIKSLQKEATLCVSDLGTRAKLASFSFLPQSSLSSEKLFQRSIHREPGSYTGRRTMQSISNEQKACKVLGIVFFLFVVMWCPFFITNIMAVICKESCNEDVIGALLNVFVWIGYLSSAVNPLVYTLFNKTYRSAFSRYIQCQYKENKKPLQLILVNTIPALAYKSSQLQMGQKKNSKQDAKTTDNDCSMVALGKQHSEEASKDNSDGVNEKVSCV
T2 sequence (P41595 whole entry): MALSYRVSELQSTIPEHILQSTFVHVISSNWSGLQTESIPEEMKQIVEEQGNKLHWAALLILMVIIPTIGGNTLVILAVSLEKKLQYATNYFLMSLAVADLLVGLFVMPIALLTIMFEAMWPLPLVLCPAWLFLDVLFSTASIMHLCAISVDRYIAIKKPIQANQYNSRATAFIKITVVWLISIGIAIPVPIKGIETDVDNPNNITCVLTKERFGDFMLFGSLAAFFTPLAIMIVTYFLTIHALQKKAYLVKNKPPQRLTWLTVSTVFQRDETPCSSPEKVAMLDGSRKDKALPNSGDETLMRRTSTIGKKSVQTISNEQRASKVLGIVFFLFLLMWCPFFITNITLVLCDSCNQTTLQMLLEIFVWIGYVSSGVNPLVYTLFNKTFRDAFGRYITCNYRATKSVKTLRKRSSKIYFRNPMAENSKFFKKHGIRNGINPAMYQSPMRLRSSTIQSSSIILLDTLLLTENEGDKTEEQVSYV

Structure (SMILES)	Ki (h5-HT1A receptor) [µM]	EC50 (h5-HT2B receptor) [µM]	Ki (h5-HT2C receptor) [µM]	EC50 (h5-HT2A receptor [1]) [µM]	Ki (h5-HT2A receptor [2]) [µM]
Cc1ccc(C(=O)C(C)N2CCCC2)cc1 (stereo not drawn) [4-MePPP, 4-methyl-α-pyrrolidinopropiophenone]	12 ± 2.2	> 10	> 5.1	> 10	1.3 ± 0.4
CCC(C(=O)c1ccc(F)cc1)N1CCCC1 (stereo not drawn) [4F-PBP, 4-fluoro-α-pyrrolidinobutiophenone]	6 ± 3.4	> 20	> 15	> 20	> 13
CCC(C(=O)c1ccc2c(c1)OCO2)N1CCCC1 (stereo not drawn) [MDPBP, 3,4-methylenedioxy-α-pyrrolidinobutiophenone]	9 ± 1.5	> 20	> 15	> 20	> 13
CCCCC(C(=O)c1ccc2c(c1)OCO2)N1CCCC1 (stereo not drawn) [MDPHP, 3,4-methylenedioxy-α-pyrrolidinohexanophenone]	13 ± 1.9	> 20	> 15	> 20	> 13
CC(C(=O)c1ccc2c(c1)OCO2)N1CCCC1 (stereo not drawn) [MDPPP, 3,4-methylenedioxy-α-pyrrolidinopropiophenone]	1.9 ± 0.8	> 20	> 15	> 20	8 ± 1.2
CCCC(C(=O)c1ccc2c(c1)OCO2)N1CCCC1 (centres unmarked) [MDPV, 3,4-methylenedioxypyrovalerone]	7.7 ± 0.6	> 20	> 15	> 20	> 13
COc1ccc(C(=O)C(C)N2CCCC2)cc1 (stereo not drawn) [MOPPP, 4-methoxy-α-pyrrolidinopropiophenone]	> 17	> 20	> 15	> 20	> 13
CCCCC(C(=O)c1ccc(C)cc1)N1CCCC1 (stereo not drawn) [MPHP, 4-methyl-α-pyrrolidinohexanophenone]	13 ± 1.9	> 20	> 15	> 20	7.3 ± 1.2
CCCCC(NCC)C(=O)c1ccccc1 (centres unmarked) [NEH, N-ethylamine-hexanophenone]	> 17	> 20	> 15	> 20	> 13
CCCC(C(=O)c1ccc(C)cc1)N1CCCC1 (centres unmarked) [Pyrovalerone, pyrovalerone]	13 ± 1.4	> 20	> 15	> 20	> 13
CCCCC(C(=O)c1ccccc1)N1CCCC1 (stereo not drawn) [α-PHP, α-pyrrolidinohexanophenone]	11 ± 5.3	> 20	> 15	> 20	> 13
CC(C(=O)c1ccccc1)N1CCCC1 (stereo not drawn) [α-PPP, α-pyrrolidinopropiophenone]	0.7 ± 0.3	> 20	> 15	> 20	1.1 ± 0.3
CCCC(C(=O)c1ccccc1)N1CCCC1 (stereo not drawn) [α-PVP, α-pyrrolidinopentiophenone]	6.1 ± 0.7	> 20	> 15	> 20	> 13
